# Laboratory results taken from US20240409585A1, “MACROCYCLIC IMMUNOMODULATORS” (priority 2021, published 2024).
# Bridge positions count the residues as written; N and C are the ends. Square brackets hold non-standard residues; d marks the D form. Peptide text beside a SMILES is read from it. * marks the point of attachment. Phe(4-COOH) = N[C@@H](Cc1ccc(C(=O)O)cc1)C(=O)O; Bip = N[C@@H](Cc1ccc(-c2ccccc2)cc1)C(=O)O; Phe(3-OMe) = COc1cccc(C[C@H](N)C(=O)O)c1; Phe(4-CN) = N#Cc1ccc(C[C@H](N)C(=O)O)cc1; Phe(3-Me) = Cc1cccc(C[C@H](N)C(=O)O)c1; 3Pal = N[C@@H](Cc1cccnc1)C(=O)O; 4Pal = N[C@@H](Cc1ccncc1)C(=O)O; Cit = NC(=O)NCCC[C@H](N)C(=O)O; Carboxymethyl = O=C(O)C*; NMeA = CN[C@@H](C)C(=O)O; Dab = NCC[C@H](N)C(=O)O; Dap = NC[C@H](N)C(=O)O
# Target: T1, PE-labeled human PD-L1-Ig binding to Jurkat cell line over-expressing human PD-1 (Jurkat-PD-1) (Homo sapiens, UniProt Q15116)
# T1 construct: expressed in transfected cells; host or cells: Jurkat
# T1 sequence (Q15116 25-288): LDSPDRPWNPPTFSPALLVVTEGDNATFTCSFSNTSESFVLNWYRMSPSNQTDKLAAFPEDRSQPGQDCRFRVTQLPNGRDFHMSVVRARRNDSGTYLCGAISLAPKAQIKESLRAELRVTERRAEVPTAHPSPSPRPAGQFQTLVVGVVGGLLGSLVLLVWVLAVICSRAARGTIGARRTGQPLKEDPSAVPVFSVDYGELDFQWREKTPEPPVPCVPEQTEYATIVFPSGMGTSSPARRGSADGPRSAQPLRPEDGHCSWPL
# Assay: Jurkat-PD-1 Cell Binding High-Content Screening Assay (CBA): Method 1
# Conditions: Jurkat-hPD-1 cells, PE-labeled PD-L1-Ig 20 nM final; read-out: Jurkat HPDL1 PD1 IC50 (uM) (Method 1)
row,Structure (SMILES),IC50
1,CC[C@H](C)[C@@H]1NC(=O)[C@H](Cc2ccc(-c3ccccc3)cc2)NC(=O)[C@H](CC(C)C)NC(=O)[C@H](Cc2c[nH]c3ccccc23)NC(=O)[C@H](CC(=O)O)NC(=O)[C@H](Cc2ccc(O)cc2)NC(=O)[C@H](Cc2ccccc2)NC(=O)CSC[C@@H](C(=O)NCC(N)=O)NC(=O)[C@H](CO)NC(=O)[C@H](C(C)C)NC(=O)[C@H](CC(C)C)NC(=O)[C@H](CCN)NC(=O)[C@@H](CC(C)C)NC(=O)[C@H](C)N(C)C1=O [Compound 1511] ({CH2CO}-FYDWL[Bip]I[NMeA][dL][Dab]LVSCG-NH2; thioether N-14),0.01 µM
2,CC(C)C[C@@H]1NC(=O)[C@H](Cc2c[nH]c3ccccc23)NC(=O)[C@H](CC(=O)O)NC(=O)[C@H](Cc2ccc(O)cc2)NC(=O)[C@H](Cc2ccccc2)NC(=O)CSC[C@@H](C(=O)NCC(N)=O)NC(=O)[C@H](CO)NC(=O)[C@H](C(C)C)NC(=O)[C@H](CC(C)C)NC(=O)[C@H](CCN)NC(=O)[C@@H](CC(C)C)NC(=O)[C@H](C)N(C)C(=O)[C@H](CCCNC(N)=O)NC(=O)[C@H](Cc2ccc(-c3ccccc3)cc2)NC1=O [Compound 1512] ({CH2CO}-FYDWL[Bip][Cit][NMeA][dL][Dab]LVSCG-NH2; thioether N-14),0.02 µM
3,COc1cccc(C[C@@H]2NC(=O)[C@H](CC(=O)O)NC(=O)[C@H](Cc3ccc(O)cc3)NC(=O)[C@H](Cc3ccccc3)NC(=O)CSC[C@@H](C(=O)NCC(N)=O)NC(=O)[C@H](CO)NC(=O)[C@H](C(C)C)NC(=O)[C@H](CC(C)C)NC(=O)[C@H](CC(N)=O)NC(=O)[C@@H](CC(C)C)NC(=O)[C@H](C)N(C)C(=O)[C@H](C(C)C)NC(=O)[C@H](Cc3ccc(-c4ccccc4)cc3)NC(=O)[C@H](CC(C)C)NC2=O)c1 [Compound 1516] ({CH2CO}-FYD[Phe(3-OMe)]L[Bip]V[NMeA][dL]NLVSCG-NH2; thioether N-14),0.02 µM
4,Cc1cccc(C[C@@H]2NC(=O)[C@H](Cc3ccccc3)NC(=O)CSC[C@@H](C(=O)NCC(N)=O)NC(=O)[C@H](CO)NC(=O)[C@H](C(C)C)NC(=O)[C@H](CC(C)C)NC(=O)[C@H](CC(N)=O)NC(=O)[C@@H](CC(C)C)NC(=O)[C@H](C)N(C)C(=O)[C@H](C(C)C)NC(=O)[C@H](Cc3ccc(-c4ccccc4)cc3)NC(=O)[C@H](CC(C)C)NC(=O)[C@H](Cc3c[nH]c4ccccc34)NC(=O)[C@H](CC(=O)O)NC2=O)c1 [Compound 1518] ({CH2CO}-F[Phe(3-Me)]DWL[Bip]V[NMeA][dL]NLVSCG-NH2; thioether N-14),0.05 µM
5,Cc1cccc(C[C@@H]2NC(=O)[C@H](Cc3cccnc3)NC(=O)CSC[C@@H](C(=O)NCC(N)=O)NC(=O)[C@H](CO)NC(=O)[C@H](C(C)C)NC(=O)[C@H](CC(C)C)NC(=O)[C@H](CC(N)=O)NC(=O)[C@@H](CC(C)C)NC(=O)[C@H](C)N(C)C(=O)[C@H](C(C)C)NC(=O)[C@H](Cc3ccc(-c4ccccc4)cc3)NC(=O)[C@H](CC(C)C)NC(=O)[C@H](Cc3c[nH]c4ccccc34)NC(=O)[C@H](CC(=O)O)NC2=O)c1 [Compound 1520] ({CH2CO}-[3Pal][Phe(3-Me)]DWL[Bip]V[NMeA][dL]NLVSCG-NH2; thioether N-14),0.01 µM
6,COc1cccc(C[C@@H]2NC(=O)[C@H](Cc3ccccc3)NC(=O)CSC[C@@H](C(=O)NCC(N)=O)NC(=O)[C@H](CO)NC(=O)[C@H](C(C)C)NC(=O)[C@H](CC(C)C)NC(=O)[C@H](CC(N)=O)NC(=O)[C@@H](CC(C)C)NC(=O)[C@H](C)N(C)C(=O)[C@H](C(C)C)NC(=O)[C@H](Cc3ccc(-c4ccccc4)cc3)NC(=O)[C@H](CC(C)C)NC(=O)[C@H](Cc3c[nH]c4ccccc34)NC(=O)[C@H](CC(=O)O)NC2=O)c1 [Compound 1521] ({CH2CO}-F[Phe(3-OMe)]DWL[Bip]V[NMeA][dL]NLVSCG-NH2; thioether N-14),0.07 µM
7,COc1cccc(C[C@@H]2NC(=O)[C@H](Cc3cccnc3)NC(=O)CSC[C@@H](C(=O)NCC(N)=O)NC(=O)[C@H](CO)NC(=O)[C@H](C(C)C)NC(=O)[C@H](CC(C)C)NC(=O)[C@H](CC(N)=O)NC(=O)[C@@H](CC(C)C)NC(=O)[C@H](C)N(C)C(=O)[C@H](C(C)C)NC(=O)[C@H](Cc3ccc(-c4ccccc4)cc3)NC(=O)[C@H](CC(C)C)NC(=O)[C@H](Cc3c[nH]c4ccccc34)NC(=O)[C@H](CC(=O)O)NC2=O)c1 [Compound 1524] ({CH2CO}-[3Pal][Phe(3-OMe)]DWL[Bip]V[NMeA][dL]NLVSCG-NH2; thioether N-14),0.01 µM
8,CC(C)C[C@@H]1NC(=O)[C@H](Cc2c[nH]c3ccccc23)NC(=O)[C@H](CC(=O)O)NC(=O)[C@H](Cc2ccc(OCC(=O)O)cc2)NC(=O)[C@H](Cc2ccccc2)NC(=O)CSC[C@@H](C(=O)NCC(N)=O)NC(=O)[C@H](CO)NC(=O)[C@H](C(C)C)NC(=O)[C@H](CC(C)C)NC(=O)[C@H](CC(N)=O)NC(=O)[C@@H](CC(C)C)NC(=O)[C@H](C)N(C)C(=O)[C@H](C(C)C)NC(=O)[C@H](Cc2ccc(-c3ccccc3)cc2)NC1=O [Compound 1526] ({CH2CO}-FY(Carboxymethyl)DWL[Bip]V[NMeA][dL]NLVSCG-NH2; thioether N-14),0.01 µM
9,CC(C)C[C@@H]1NC(=O)[C@H](Cc2c[nH]c3ccccc23)NC(=O)[C@H](CC(=O)O)NC(=O)[C@H](Cc2ccc(C#N)cc2)NC(=O)[C@H](CC(N)=O)NC(=O)CSC[C@@H](C(=O)NCC(N)=O)NC(=O)[C@H](CO)NC(=O)[C@H](C(C)C)NC(=O)[C@H](CC(C)C)NC(=O)[C@H](CC(N)=O)NC(=O)[C@@H](CC(C)C)NC(=O)[C@H](C)N(C)C(=O)[C@H](C(C)C)NC(=O)[C@H](Cc2ccc(-c3ccccc3)cc2)NC1=O [Compound 1527] ({CH2CO}-N[Phe(4-CN)]DWL[Bip]V[NMeA][dL]NLVSCG-NH2; thioether N-14),0.01 µM

# More lines, in order of falling IC50, values ahead:
row,IC50,Structure (SMILES)
1,0.05 µM,COc1cccc(C[C@@H]2NC(=O)[C@H](CN)NC(=O)CSC[C@@H](C(=O)NCC(N)=O)NC(=O)[C@H](CO)NC(=O)[C@H](C(C)C)NC(=O)[C@H](CC(C)C)NC(=O)[C@H](CC(N)=O)NC(=O)[C@@H](CC(C)C)NC(=O)[C@H](C)N(C)C(=O)[C@H](C(C)C)NC(=O)[C@H](Cc3ccc(-c4ccccc4)cc3)NC(=O)[C@H](CC(C)C)NC(=O)[C@H](Cc3c[nH]c4ccccc34)NC(=O)[C@H](CC(=O)O)NC2=O)c1 [Compound 1522] ({CH2CO}-[Dap][Phe(3-OMe)]DWL[Bip]V[NMeA][dL]NLVSCG-NH2; thioether N-14)
2,0.05 µM,CC(C)C[C@@H]1NC(=O)[C@H](Cc2c[nH]c3ccccc23)NC(=O)[C@H](CC(=O)O)NC(=O)[C@H](Cc2ccc(O)cc2)NC(=O)[C@H](Cc2ccccc2)NC(=O)CSC[C@@H](C(=O)N[C@@H](C)C(N)=O)NC(=O)[C@H](CO)NC(=O)[C@H](CCCCN)NC(=O)[C@H](CC(C)C)NC(=O)[C@H](CC(N)=O)NC(=O)[C@@H](C)NC(=O)[C@H](C)N(C)C(=O)[C@H](C(C)C)NC(=O)[C@H](Cc2ccc(-c3ccccc3)cc2)NC1=O [Compound 1529] ({CH2CO}-FYDWL[Bip]V[NMeA][dA]NLKSCA-NH2; thioether N-14)
3,0.03 µM,CC(C)C[C@@H]1NC(=O)[C@H](Cc2c[nH]c3ccccc23)NC(=O)[C@H](CC(=O)O)NC(=O)[C@H](Cc2ccc(C#N)cc2)NC(=O)[C@H](Cc2ccccc2)NC(=O)CSC[C@@H](C(=O)NCC(N)=O)NC(=O)[C@H](CO)NC(=O)[C@H](C(C)C)NC(=O)[C@H](CC(C)C)NC(=O)[C@H](CC(N)=O)NC(=O)[C@@H](CC(C)C)NC(=O)[C@H](C)N(C)C(=O)[C@H](C(C)C)NC(=O)[C@H](Cc2ccc(-c3ccccc3)cc2)NC1=O [Compound 1525] ({CH2CO}-F[Phe(4-CN)]DWL[Bip]V[NMeA][dL]NLVSCG-NH2; thioether N-14)
4,0.02 µM,CC(C)C[C@@H]1NC(=O)[C@H](Cc2c[nH]c3ccccc23)NC(=O)[C@H](CC(=O)O)NC(=O)[C@H](Cc2ccc(O)cc2)NC(=O)[C@H](Cc2ccccc2)NC(=O)CSC[C@@H](C(=O)NCC(N)=O)NC(=O)[C@H](CO)NC(=O)[C@H](C(C)C)NC(=O)[C@H](CC(C)C)NC(=O)[C@H](CCN)NC(=O)[C@@H](CC(C)C)NC(=O)[C@H](C)N(C)C(=O)[C@H](CCC(=O)O)NC(=O)[C@H](Cc2ccc(-c3ccccc3)cc2)NC1=O [Compound 1513] ({CH2CO}-FYDWL[Bip]E[NMeA][dL][Dab]LVSCG-NH2; thioether N-14)
5,0.02 µM,Cc1cccc(C[C@@H]2NC(=O)[C@H](CC(=O)O)NC(=O)[C@H](Cc3ccc(O)cc3)NC(=O)[C@H](Cc3ccccc3)NC(=O)CSC[C@@H](C(=O)NCC(N)=O)NC(=O)[C@H](CO)NC(=O)[C@H](C(C)C)NC(=O)[C@H](CC(C)C)NC(=O)[C@H](CC(N)=O)NC(=O)[C@@H](CC(C)C)NC(=O)[C@H](C)N(C)C(=O)[C@H](C(C)C)NC(=O)[C@H](Cc3ccc(-c4ccccc4)cc3)NC(=O)[C@H](CC(C)C)NC2=O)c1 [Compound 1517] ({CH2CO}-FYD[Phe(3-Me)]L[Bip]V[NMeA][dL]NLVSCG-NH2; thioether N-14)
6,0.02 µM,Cc1cccc(C[C@@H]2NC(=O)[C@H](Cc3ccncc3)NC(=O)CSC[C@@H](C(=O)NCC(N)=O)NC(=O)[C@H](CO)NC(=O)[C@H](C(C)C)NC(=O)[C@H](CC(C)C)NC(=O)[C@H](CC(N)=O)NC(=O)[C@@H](CC(C)C)NC(=O)[C@H](C)N(C)C(=O)[C@H](C(C)C)NC(=O)[C@H](Cc3ccc(-c4ccccc4)cc3)NC(=O)[C@H](CC(C)C)NC(=O)[C@H](Cc3c[nH]c4ccccc34)NC(=O)[C@H](CC(=O)O)NC2=O)c1 [Compound 1519] ({CH2CO}-[4Pal][Phe(3-Me)]DWL[Bip]V[NMeA][dL]NLVSCG-NH2; thioether N-14)
7,0.01 µM,CC(C)C[C@@H]1NC(=O)[C@H](Cc2c[nH]c3ccccc23)NC(=O)[C@H](CC(=O)O)NC(=O)[C@H](Cc2ccc(C(=O)O)cc2)NC(=O)[C@H](Cc2ccccc2)NC(=O)CSC[C@@H](C(=O)NCC(N)=O)NC(=O)[C@H](CO)NC(=O)[C@H](C(C)C)NC(=O)[C@H](CC(C)C)NC(=O)[C@H](CC(N)=O)NC(=O)[C@@H](CC(C)C)NC(=O)[C@H](C)N(C)C(=O)[C@H](C(C)C)NC(=O)[C@H](Cc2ccc(-c3ccccc3)cc2)NC1=O [Compound 1528] ({CH2CO}-F[Phe(4-COOH)]DWL[Bip]V[NMeA][dL]NLVSCG-NH2; thioether N-14)
